Test results reported in EP0298135A1, “Phenylalanine derivative and proteinase inhibitor” (Okamoto, Shosuke, priority 1987, dated 1989).
Structures can show the parent of a compound that is named as a salt.

What was measured:
Type in all cases: biochemical
human plasmin [1] = biological target: T1, human plasmin (Homo sapiens, UniProt P00747); test: Antiplasmin activity: inhibition of fibrin decomposition; settings: Table 2; concentration at which fibrin dissolution time is extended twice, pH 7.4, 37°C; read-out: Plasmin Fibrin (concentration I₅₀)
Protocol: (i) Determination of inhibition activity on fibrin decomposition
An inhibitor sample is dissolved in a 0.l8 M borate-physiological salt buffer solution (pH = 7.4) to bring the total volume to 600 µl. To this buffer solution, 200 µl of a 0.2% bovine fibrinogen, l00 µl of a 0.3 casein unit/ml human plasmin solution, and l00 µl of a 50 unit/ml bovine thrombin solution, all dissolved in the above-mentioned buffer, are added at a temperature of 37°C in a constant temperature bath. The dissolution time of the fibrin mass formed above is then determined.

human plasmin [2] = biological target: T1, human plasmin; test: Antiplasmin activity: inhibition of S-2251 decomposition; settings: Table 2; substrate S-2251, pH 7.4, 37°C; read-out: Plasmin S-2251 (concentration I₅₀)
Protocol: (ii) Determination of inhibition activity on S-225l decomposition
An inhibitor sample is dissolved in a 0.05 M Tris-hydrochloric acid buffer solution (pH = 7.4) to bring the total volume to 400 µl. To this solution, 50 µl of a 3 mM S-225l solution is added and the mixture is incubated at a temperature of 37°C for 5 minutes in a constant temperature bath. Then 50 µl of a 0.2 casein unit/ml human plasmin is added and the mixture is incubated at a temperature of 37°C for 4 minutes. Thereafter, the reaction is stopped by adding 50 µl of 50% acetic acid.
Thus, the concentration I₅₀ (µmol) of the inhibitor sample, at which the absorbance is one half (i.e., l/2) of that obtained in the absence of the inhibitor, is determined.

human plasma kallikrein = human plasma kallikrein (Homo sapiens, UniProt P03952); test: Anti-plasma kallikrein activity: inhibition of S-2302 decomposition; settings: Table 2; substrate S-2302, pH 7.8, 37°C; read-out: Plasma Kallikrein S-2302 (concentration I₅₀)
Protocol: An inhibitor sample is dissolved in a 0.05 M Tris-hydrochloric acid buffer solution (pH = 7.8) to bring the total volume to 400 µl. […] Then, 50 µl of a 0.l2 unit/ml human plasma kallikrein is added and the mixture is incubated at a temperature of 37°C for 5 minutes. Thereafter, 50 µl of 50% acetic acid is added to terminate the reaction. […] Thus, the concentration I₅₀ (µmol) of the inhibitor sample, at which the absorbance is one half (i.e., l/2) of that obtained in the absence of the inhibitor sample, is determined.

bovine thrombin [3] = biological target: T2, bovine thrombin (Bos taurus, UniProt P00735); test: Antithrombin activity: inhibition of S-2238 decomposition
Protocol: (ii) Determination of inhibition activity on S-2238 decomposition
An inhibitor sample is dissolved in a 0.05 M Tris-hydrochloric acid buffer solution (pH = 8.3) to bring the a total volume to 400 µl. To this solution, 50 µl of a 0.2 mM S-2238 solution is added and the mixture is incubated at a temperature of 37°C for 5 minutes in a constant temperature bath. Then 50 µl of a 0.2 unit/ml bovine thrombin solution is added thereto and the absorbance, at 405 nm, of the p-nitroaniline formed per minute is determined at a temperature of 37°C by using the so-called initial velocity method. Thus, the concentration I₅₀ (µmol) of the inhibitor sample, at which the absorbance is one half (i.e., l/2) of that obtained in the absence of the inhibitor sample, is determined.

human urokinase = human urokinase (Homo sapiens, UniProt P00749); test: Antiurokinase activity: inhibition of S-2444 decomposition; settings: Table 2; substrate S-2444, pH 8.8, 37°C; read-out: Urokinase S-2444 (concentration I₅₀)
Protocol: Determination of inhibition activity for S-2444 decomposition
An inhibitor sample is dissolved in a 0.05 M Tris-hydrochloric acid buffer solution (pH = 8.8) to bring the total volume to 400 µl. To this solution, 50 µl of a l mM S-2444 solution is added and the mixture is incubated at a temperature of 37°C for 5 minutes in a constant temperature bath. Then 50 µl of a 500 unit/ml human urokinase is added and the mixture is incubated at a temperature of 37°C for 5 minutes. Thereafter, 50 µl of 50% acetic acid is added to terminate the reaction. The absorbance of the p-nitroaniline formed in the reaction mixture is measured at 405 nm. Thus, the concentration I₅₀ (µmol) of the inhibitor sample, at which the absorbance is one half (i.e., l/2) of that obtained in the absence of the inhibitor sample, is determined.

bovine trypsin = biological target: T3, bovine trypsin (Bos taurus, UniProt P00760); test: Antitrypsin activity: inhibition of S-2238 decomposition; settings: Table 2; substrate S-2238, pH 8.1, 37°C; read-out: Trypsin S-2238 (concentration I₅₀)
T3 sequence (P00760 24-246): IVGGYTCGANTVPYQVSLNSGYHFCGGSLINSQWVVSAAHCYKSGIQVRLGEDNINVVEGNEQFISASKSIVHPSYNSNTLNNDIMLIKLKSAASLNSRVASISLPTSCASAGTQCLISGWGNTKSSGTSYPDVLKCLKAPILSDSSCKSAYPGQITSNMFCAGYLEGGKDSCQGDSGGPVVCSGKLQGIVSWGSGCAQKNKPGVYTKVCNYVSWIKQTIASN
Protocol: Determination of inhibition activity against S-2238 decomposition An inhibitor sample is dissolved in a 0.05 M Tris-imidazole buffer solution (pH = 8.l) and l25 µl of a l mM S-2238 solution is added to bring the total volume to l.20 ml. The mixture is incubated at a temperature of 37°C for 5 minutes in a constant temperature bath. To this mixture, 0.05 ml of bovine trypsin is added and the absorbance, at 405 nm, of the p-nitroaniline formed per minute is determined at a temperature of 37°C by using the so-called initial velocity method. Thus, the concentration I₅₀ (µmol) of the inhibitor sample, at which the absorbance is one half (i.e., l/2) of that obtained in the absence of the inhibitor sample, is determined.

bovine thrombin [4] = biological target: T2, bovine thrombin; test: Antithrombin activity: inhibition of fibrin formation from fibrinogen
Protocol: (i) Determination of inhibition activity against fibrin formation
An inhibitor sample is dissolved in a 0.l8 M borate-physiological salt buffer solution (pH = 7.4) to bring the total volume to 500 µl. To this solution, 400 µl of a 0.2% bovine fibrinogen solution and l00 µl of a 4 unit/ml bovine thrombin solution are added at a temperature of 37°C in a constant temperature bath. Thus, a coagulation time is determined. The inhibitor concentration I₅₀ (µmol), at which the coagulation time obtained in the absence of the inhibitor is extended twice, is determined.

Sequence of human plasma kallikrein (P03952 391-638 limits assumed): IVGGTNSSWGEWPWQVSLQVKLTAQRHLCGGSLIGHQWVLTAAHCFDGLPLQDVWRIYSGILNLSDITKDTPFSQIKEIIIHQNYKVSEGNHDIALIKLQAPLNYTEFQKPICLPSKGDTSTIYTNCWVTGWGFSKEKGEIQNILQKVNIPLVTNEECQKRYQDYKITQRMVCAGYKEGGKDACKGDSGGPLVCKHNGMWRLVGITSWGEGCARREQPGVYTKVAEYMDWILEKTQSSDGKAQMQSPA
Sequence of human plasma kallikrein (P03952 20-390 partner limits assumed): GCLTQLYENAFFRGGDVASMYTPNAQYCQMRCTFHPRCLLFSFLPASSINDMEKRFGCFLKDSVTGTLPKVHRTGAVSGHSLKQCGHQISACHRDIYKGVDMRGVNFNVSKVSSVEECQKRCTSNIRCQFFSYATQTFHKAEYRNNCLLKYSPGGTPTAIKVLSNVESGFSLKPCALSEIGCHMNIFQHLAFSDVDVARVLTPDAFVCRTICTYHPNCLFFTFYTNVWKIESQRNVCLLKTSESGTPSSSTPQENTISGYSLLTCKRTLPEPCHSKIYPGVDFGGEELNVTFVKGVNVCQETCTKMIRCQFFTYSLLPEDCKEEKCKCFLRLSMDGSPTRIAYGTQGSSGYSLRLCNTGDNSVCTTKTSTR
T1 sequence (P00747 581-810 limits assumed): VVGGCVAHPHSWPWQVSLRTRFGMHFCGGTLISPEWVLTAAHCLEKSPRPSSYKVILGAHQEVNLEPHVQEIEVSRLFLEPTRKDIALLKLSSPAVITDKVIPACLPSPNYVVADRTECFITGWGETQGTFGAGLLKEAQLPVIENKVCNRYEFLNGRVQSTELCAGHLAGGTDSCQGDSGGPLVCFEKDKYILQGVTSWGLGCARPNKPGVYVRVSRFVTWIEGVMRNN
T1 sequence (P00747 97-580 partner limits assumed): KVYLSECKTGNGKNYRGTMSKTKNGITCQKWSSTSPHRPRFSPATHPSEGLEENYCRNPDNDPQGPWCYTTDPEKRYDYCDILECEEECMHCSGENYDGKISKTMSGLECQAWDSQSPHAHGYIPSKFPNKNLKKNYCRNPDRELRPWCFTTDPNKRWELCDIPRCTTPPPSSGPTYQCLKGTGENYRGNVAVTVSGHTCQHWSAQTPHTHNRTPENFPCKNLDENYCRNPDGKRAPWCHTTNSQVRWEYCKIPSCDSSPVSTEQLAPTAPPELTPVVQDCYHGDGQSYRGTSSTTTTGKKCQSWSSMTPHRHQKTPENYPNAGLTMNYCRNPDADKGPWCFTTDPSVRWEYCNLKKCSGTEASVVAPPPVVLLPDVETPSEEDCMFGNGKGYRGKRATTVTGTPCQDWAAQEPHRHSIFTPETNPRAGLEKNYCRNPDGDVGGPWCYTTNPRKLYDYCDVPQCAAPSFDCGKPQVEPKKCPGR

Row | Compound | IC50 (human plasmin [1]) [µM] | IC50 (human plasmin [2]) [µM] | IC50 (human plasma kallikrein) [µM] | IC50 (bovine thrombin [3]) [µM] | IC50 (human urokinase) [µM] | IC50 (bovine trypsin) [µM] | IC50 (bovine thrombin [4]) [µM] | IC50 (bovine thrombin [4]; Table 2, concentration at which coagulation time is extended twice, bovine fibrinogen, pH 7.4, 37°C, read-out: Thrombin Fibrinogen (concentration I₅₀)) [µM]
1 | CN(Cc1ccncc1)C(=O)[C@H](Cc1ccccc1)NC(=O)CCCCCN [Compound No. 6, N-(6-aminocaproyl)-L-phenylalanine N-methyl-(4-pycoryl)amide dihydrochloride] | > 1000 | > 1000 | > 1000 | > 500 | > 500 | – | – | –
2 | COc1ccc(NC(=O)[C@H](Cc2ccccc2)NC(=O)c2ccc(NC(=N)N)cc2)cn1 [compound 18] | – | – | 12 | > 1000 | 630 | 35 | > 1000 | –
3 | CC(=O)c1ccc(NC(=O)[C@H](Cc2ccc(OCc3ccccc3)cc2)NC(=O)c2ccc(C(=N)N)cc2)cc1 [compound 12, N-(4-amidinobenzoyl)-4-benzyloxy-L-phenylalanine 4-acetylanilide hydroiodic acid] | 0.98 | 2.2 | 0.3 | – | 4 | 0.75 | – | –
4 | CN(Cc1ccncc1)C(=O)[C@H](Cc1ccccc1)NC(=O)c1ccc(NC(=N)N)cc1 [compound 19] | > 1000 | > 1000 | 1000 | – | – | – | > 1000 | –
5 | CC1CCC(NC(=O)[C@H](Cc2ccccc2)NC(=O)c2ccc(NC(=N)N)cc2)CC1C (some centres unmarked) [compound 21] | – | 450 | 15 | 400 | 740 | 6 | > 100 | –
6 | N=C(N)NCCCC(=O)N[C@@H](Cc1ccc([N+](=O)[O-])cc1)C(=O)Nc1ccc(C(=O)c2ccccc2)cc1 [compound 29] | 82 | 120 | 56 | – | – | 17 | – | –
7 | COc1ccc(NC(=O)[C@H](Cc2ccc(OCc3ccccc3)cc2)NC(=O)c2ccc(NC(=N)N)cc2)cn1 [compound 25] | 48 | 160 | 12 | – | – | 17 | > 100 | –
8 | N=C(N)Nc1ccc(C(=O)N[C@@H](Cc2ccc([N+](=O)[O-])cc2)C(=O)Nc2ccc(C(=O)c3ccccc3)cc2)cc1 [Compound No. 23, N-(4-guanidinobenzoyl)-4-nitro-L-phenylalaninine 4-benzoylanilide methanesulfonate] | – | 89 | 11 | – | 11 | 0.43 | – | –
9 | NCCc1ccc(C(=O)N[C@@H](Cc2ccccc2)C(=O)Nc2ccc(C(=O)c3ccccc3)cc2)cc1 [compound 9] | – | 30 | 31 | – | 100 | 16 | – | –
10 | CCOC(=O)CC(O)CNC(=O)[C@H](Cc1ccccc1)NC(=O)CCCCN (some centres unmarked) [Compound No. 3] | > 1000 | > 1000 | – | > 1000 | > 1000 | – | > 1000 | –
11 | CN(Cc1ccccc1)C(=O)[C@H](Cc1ccc(OCc2ccccc2)cc1)NC(=O)c1ccc(NC(=N)N)cc1 [compound 28] | – | 140 | 170 | – | – | 110 | – | –
12 | CC(=O)c1ccc(NC(=O)[C@H](Cc2ccccc2)NC(=O)c2ccc(C(=N)N)cc2)cc1 [compound 11, N-(4-amidinobenzoyl)-L-phenylalanine 4-acetylanilide hydroiodic acid] | 21 | 23 | 0.8 | – | 13 | 3.6 | – | –
13 | NCCCC(=O)N[C@@H](Cc1ccccc1)C(=O)Nc1ccc(C(=O)c2ccccc2)cc1 [compound 1] | – | 23 | – | > 200 | – | – | – | –
14 | NCCCCCC(=O)N[C@@H](Cc1ccccc1)C(=O)Nc1ccc(C(=O)c2ccccc2)cc1 [compound 4] | – | 39 | – | – | – | > 200 | – | –
15 | NCCCCCC(=O)N[C@@H](Cc1ccc(O)cc1)C(=O)Nc1ccc(C(=O)c2ccccc2)cc1 [compound 7] | – | > 100 | > 120 | > 180 | 120 | – | > 120 | –
16 | COc1ccc(NC(=O)[C@H](Cc2ccccc2)NC(=O)c2ccc(CCN)cc2)cn1 [compound 10, N-[4-(2-aminoethyl)benzoyl]-L-phenylalanine 3-(6-methoxypyridyl)amide dihydrochloride] | 970 | 830 | 85 | – | – | – | – | –
17 | N=C(N)NC[C@H]1CC[C@H](C(=O)N[C@@H](Cc2ccc([N+](=O)[O-])cc2)C(=O)Nc2ccc(C(=O)c3ccccc3)cc2)CC1 [compound 31, N-(trans-4-guanidinomethylcyclohexylcarbonyl)-4-nitro-L-phenylalanine 4-benzoylanilide methane sulfonate] | – | > 100 | > 100 | – | > 100 | – | – | –
18 | N-(4-guanidinobenzoyl)-L-phenylalanine 4-cis/trans-methylcyclohexylamide hydrochloride [Compound No. 20] | 73 | 140 | 45 | – | 310 | 15 | – | > 100
19 | N=C(N)Nc1ccc(C(=O)N[C@@H](Cc2ccccc2)C(=O)Nc2ccc(C(=O)c3ccccc3)cc2)cc1 [compound 16] | – | – | 3.6 | – | 40 | 1.5 | – | –
20 | Cc1ccc(NC(=O)[C@H](Cc2ccccc2)NC(=O)c2ccc(NC(=N)N)cc2)cc1 [compound 13, N-(4-guanidinobenzoyl)-L-phenylalanine 4-methylanilide hydrochloride] | > 200 | > 1000 | 4.2 | – | 420 | 1.3 | – | –
21 | Cc1ccc(NC(=O)[C@H](Cc2ccc(OCc3ccccc3)cc2)NC(=O)c2ccc(NC(=N)N)cc2)cc1C [compound 24] | 16 | 21 | 5.7 | – | 240 | 9.1 | – | –
